Measured values published in patent US20080280810A1, “PEPTIDES HAVING AFFINITY FOR BODY SURFACES” (priority 2006, published 2008).

How the values were obtained:
[1] = Color retention after shampoo treatment, peptide as sealant with Basic Violet 2 dye; set-up: species or system human; settings: for Delta E: 0.50 wt % Basic Violet 2, peptide 0.25 wt %, 30 min contact, after 10 shampoo treatments, dye alone 37.34; for hair color retention compared to the dye alone (in words): Basic Violet 2, by Delta E values, vs Comparative Example 13
Procedure: The peptides used in this Example were prepared as described in Examples 1 and 2. The color retention was quantified using a spectrophotometric measurement technique. A peptide given as SEQ ID NO:41 or SEQ ID NO:42 (38 mg), produced via fermentation as described in Examples 1 and 2, was added to 15 g of an aqueous 0.50 wt % solution of Basic Violet 2 (Abbey Color, Philadelphia, Pa.) and the solution was allowed to stir for 1 h. A natural white hair tress (1 cm wide, potted, International Hair Importers & Products Inc., Bellerose, N.Y.) was inserted into a 15 mm×125 mm test tube and 13 mL of the peptide/dye mixture was injected into the test tube. The hair tress was immersed in contact with the colorant solution for 30 min and the colorant solution was agitated using a magnetic stirrer. The tress was removed, allowed to drip dry, and then air dried for 30 min. The hair tress was then subjected to a water rinse using copious amounts of deionized water, followed by a shampoo treatment with embrocation for 30 seconds. The shampoo treatment involved the application of Pantene Pro-V Sheer Volume shampoo (Proctor & Gamble, Cincinnati, Ohio) to the hair as follows. A quarter-sized drop of the shampoo was distributed evenly over the hair tress and then was massaged aggressively into the hair for 30 sec, after which the hair tress was rinsed with water to remove the shampoo. The hair tress was then dried at room temperature. The shampooing step was repeated 9 more times to give a total of 10 shampoo treatments. The entire procedure described above was repeated without the addition of the hair-binding peptide to serve as a control. The color intensity after the shampoo was measured as described in Examples 4-7.

[2] = Co-application of multi-block peptide with semi-permanent dye (Arianor Ebony), color retention; set-up: species or system human; key: ΔE of peptide sample minus peptide-free control; larger = better retention; settings: difference in Delta E between peptide sample and peptide free control after 3 embrocation cycles (about 12 manual shampoos); pH 8.5-9.0; >2 benefit, >4 substantial benefit
Procedure: A 0.5% aqueous solution of Arianor Ebony (Sensient Technologies Corp, Milwaukee, Wis.) containing 3% benzyl alcohol and 0.05% diazolidinyl urea (biocide) was prepared. Dye insolubles were removed by filtration and the pH of the dye solution was adjusted to 8.50-9.0, using ethanolamine.
Approximately 1 mL of the dye solution was added to selected wells of a 24-well plate (Thomson Instrument Co., Oceanside, Calif.; part # 931565). A multi-block peptide (see Table 12) was dissolved in a solution consisting of 3 wt % benzyl alcohol and 95 wt % water to yield a peptide concentration of 2 wt % or approximately 20 mg/mL. The pH was adjusted to 8.5-9.0 using ethanolamine. The peptide solution was then pipetted into test wells containing dye solution in the amount of 1 mL or 0.2 mL respectively. The total volume in each test well was then adjusted to 2 mL where necessary using 3% aqueous benzyl alcohol (pH adjusted to 8.5-9.0 with ethanolamine). Peptide free controls consisted of 1 mL of dye solution diluted to 2 mL with the pH adjusted aqueous benzyl alcohol solution.
Baseline […] readings were made on one inch long tresses (see below) using an X-RITE® SP78™ Sphere Spectrophotometer (X-Rite, Inc., Grandville, Mich.), by placing the hair tress into the photosensor and calculating L*, a* and b* parameters representing the photometer response. All measurements were the average of three individual determinations.
The tresses (potted on one end with resin) of natural white, 85% gray or regular bleached hair (International Hair Importers and Products, Bellerose, N.Y.) were immersed in the peptide/dye solution and the entire well plate was agitated on a VORTEX-GENIE® 2 Mixer (Scientific Industries, Bohemia, N.Y.) at a speed setting of 1 for 30 minutes. The tresses were removed from the wells, rinsed for 30 seconds under flowing deionized water and then air dried.
The following complement of beads was then added to each well containing a hair tress: (8 beads in all; 4 Novagen Coli Rollers Plating Beads—sterilized (EMD Biosciences, San Diego, Calif.; Catalog No. 71013), 2 BioSpec 6.35 mm glass beads (BioSpec Products, Bartlesville, Okla.; Catalog No. 11079635), and 2 BioSpec 3.2 mm Stainless Steel Bead (Catalog No. 11079132ss).
Then 2.5 mL of aqueous 50% Pantene Pro V® shampoo (Proctor & Gamble Co., Cincinnati, Ohio) was pipetted into each well. The plate was placed on a VWR® VX-2500 Multi-tube Vortexer (VWR, West Chester, Pa.) for 5 minutes to simulate shampooing with embrocation. The hair tresses were then rinsed under flowing deionized water and air dried. This cycle was repeated two more times except that the length of time was 10 minutes for both subsequent embrocation cycles. (This treatment was previously determined to simulate approximately 12 manual shampoo cycles.) At the conclusion of the third embrocation cycle L*, a* and b* values were measured and Delta E values (ΔE) were calculated using equation 1 below:
where L*=the lightness variable and a* and b* are the chromaticity coordinates of CIELAB colorspace as defined by the International Commission of Illumination (CIE) (Minolta, Precise Color Communication—Color Control From Feeling to Instrumentation, Minolta Camera Co., 1996).
The Delta E value (ΔE) indicates color retention relative to the non-dyed hair and larger Delta E values indicate better performance. Values listed in the table represent the difference in Delta E values between the peptide-containing sample and the peptide free control. This difference is indicative of color retention after shampoo or water rinse treatments and positive values indicate better performance relative to the peptide free controls (Table 12).

Substance | Delta E [1] | hair color retention compared to the dye alone (in words) [1] | ΔE Retention Ebony Dye Regular Bleached Hair [2] | ΔE Retention Ebony dye with Natural White Hair [2]
P-EQISGSLVAAPW-KRKRK-D (PEQISGSLVAAPWKRKRKD; Peptide having affinity for hair) [HC 74] | 38.91 | a small improvement in hair color retention | 0.1 | 8.5
P-TPPELLHGAPRS-KRKRK-D (PTPPELLHGAPRSKRKRKD; Peptide having affinity for hair) [HC 71] | 37.02 | no improvement in hair color retention | 1.9 | 5.2
